Reference: patent US20190353647A1, “NOVEL REAL-TIME MULTIPLEXED, MULTI-COLOR BIOLUMINESCENCE RESONANCE ENERGY TRANSFER ASSAY, APPARATUS, AND USES THEREOF” (Universite de Bordeaux, priority 2016, published 2019)

Target: T1, TRPV1 (Homo sapiens, UniProt Q8NER1)
T1 construct: expressed in transfected cells; host or cells: HEK293T
Experiment: Intermolecular BRET assay, TRPV1-Luc/YFP-CaM in HEK293T cells
Format: cell-based
Conditions: TRPV1-Luc/YFP-CaM
Source text: In order to generate the BRET constructs, super Yellow Fluorescent Protein 2 and Renilla Luciferase II were used to improve the brightness of the assay. They were referred as YFP and Luc for short in the rest of the manuscript. The cDNA of Luc and YFP were first cloned together using a three-piece ligation in the BamHI/XhoI site of pcDNA3.1(+) (Invitrogen, Carlsbad, Calif., USA), yielding two expression vectors pcDNA3.1 YFP-Luc where YFP was cloned in-fusion at the N-terminal of Luc, and pcDNA3.1 Luc-YFP where Luc was cloned in-fusion at the N-terminal of YFP. Both YFP and Luc were amplified by PCR from the pcDNA3-YFP-EPAC-Luc vector. Luc was cloned either at the N-terminal of YFP as a HindIII-EcoRI fragment (primers used: “Luc_HindIII_ATGN-term sense” and “Luc_no Stop_EcoRI_N-term antisense”) or at the COOH-terminal of YFP as an EcoRI-XhoI fragment (primer used: “Luc_EcoRI_ATG_C-term sense” and “Luc_XhoI_Stop_C-term antisense”). In parallel, YFP was cloned either at the N-terminal of Luc as a HindIII-EcoRI fragment (primers used: “YFP_HindIII_ATG_N-term sense” and “YFP_no Stop_EcoRI_N-term antisense”) or at the COOH-terminal of Luc as a EcoRI-XhoI fragment (primer used: “YFP_EcoRI_ATG_C-term sense” and “YFP_XhoI_Stop_C-term antisense”). The sequence joining Luc and YFP sequence encoded […] (SEQ ID NO: 18) as a linker, and contained an AgeI restriction site. The YFP-hTRPV1-Luc expression vector was obtained by subcloning the human TRPV1 cDNA from the pDONR201-hTRPV1 vector (Harvard Medical School PlasmID Repository, clone HsCD00081472) as an EcoRI PCR fragment in the EcoRI site of the vector pcDNA3.1 YFP-Luc (primer used: “hTRPV1_EcoRI_Fus_Sense” and “hTRPV1_EcoRI_Fus_antisense”). The hTRPV1-Luc expression vector was obtained by subcloning the cDNA of hTRPV1 as a HindIII-EcoRI fragment in place of the YFP in the HindIII-EcoRI site of the pcDNA3.1 YFP-Luc vector (primer used: “hTRPV1_HindIII_ATG_Sense” and “hTRPV1_EcoRI_Fus_antisense”). The Luc-hTRPV3 expression vector was obtained by subcloning the cDNA of hTRPV3 (Harvard Medical School PlasmID Repository, clone HsCD00341603) as a AgeI-XhoI fragment in place of the YFP in the AgeI-XhoI sites of the pcDNA3.1 Luc-YFP vector (primer used: “hTRPV3_AgeI_ATG_Sense” and “hTRPV3_Stop_XhoI_antisense”). The hTRPV4-Luc expression vector was obtained by subcloning the cDNA of hTRPV4 as a BamHI-AgeI fragment in place of the YFP in the BamHI-AgeI site of the pcDNA3.1 YFP-Luc vector (primer used: “hTRPV4_BamHI_ATG_Sense” and hTRPV4_AgeI_Fus_antisense”). In each case, the sequence joining the cDNA of interest and either Luc or YFP sequence encoded […] (SEQ ID NO: 18) as a linker.
The cDNA of mAmetrine (Plasmid #54660) and LssmOrange (Plasmid #37130) were obtained from AddGene plasmid repository. The cDNA of aquamarine, mAmetrine and LssmOrange were all subcloned as a HindIII-EcoRI fragment in place of the YFP in the HindIII-EcoRI site of the pcDNA3.1 YFP-Luc vector (primer used: “YFP_HindIII_ATG_N-term sense” and “YFP_no Stop_EcoRI_N-term antisense”) to yield pcDNA3.1 FP-Luc expression vectors (“FP” being any fluorescent protein between aquamarine, mAmetrine and LssmOrange). […] A similar strategy was used to obtain the FP-CaM expression vector using the pcDNA3.1 FP-Luc expression vector instead of the pcDNA3.1 YFP-Luc.
HEK293T cells were maintained in Dulbecco's modified Eagle's medium-high Glucose (DMEM) (D6429, Sigma) supplemented with 10% fetal bovine serum, 100 units mL-1 penicillin and streptomycin. Twenty-four hours before transfection, cells were seeded at a density of 500,000 cells in 6-well dishes. Transient transfections were performed using polyethylenimine (PEI, linear, Mr 25,000; catalogue number 23966 Polysciences, Inc., Warrington, Pa., USA) with a PEI:DNA ratio of 4:1. Usually, 0.1-0.25 μg of the donor constructions and 1.75-1.9 μg of the acceptors constructions were transfected for the BRET measurement.

T1 sequence (Q8NER1 whole entry): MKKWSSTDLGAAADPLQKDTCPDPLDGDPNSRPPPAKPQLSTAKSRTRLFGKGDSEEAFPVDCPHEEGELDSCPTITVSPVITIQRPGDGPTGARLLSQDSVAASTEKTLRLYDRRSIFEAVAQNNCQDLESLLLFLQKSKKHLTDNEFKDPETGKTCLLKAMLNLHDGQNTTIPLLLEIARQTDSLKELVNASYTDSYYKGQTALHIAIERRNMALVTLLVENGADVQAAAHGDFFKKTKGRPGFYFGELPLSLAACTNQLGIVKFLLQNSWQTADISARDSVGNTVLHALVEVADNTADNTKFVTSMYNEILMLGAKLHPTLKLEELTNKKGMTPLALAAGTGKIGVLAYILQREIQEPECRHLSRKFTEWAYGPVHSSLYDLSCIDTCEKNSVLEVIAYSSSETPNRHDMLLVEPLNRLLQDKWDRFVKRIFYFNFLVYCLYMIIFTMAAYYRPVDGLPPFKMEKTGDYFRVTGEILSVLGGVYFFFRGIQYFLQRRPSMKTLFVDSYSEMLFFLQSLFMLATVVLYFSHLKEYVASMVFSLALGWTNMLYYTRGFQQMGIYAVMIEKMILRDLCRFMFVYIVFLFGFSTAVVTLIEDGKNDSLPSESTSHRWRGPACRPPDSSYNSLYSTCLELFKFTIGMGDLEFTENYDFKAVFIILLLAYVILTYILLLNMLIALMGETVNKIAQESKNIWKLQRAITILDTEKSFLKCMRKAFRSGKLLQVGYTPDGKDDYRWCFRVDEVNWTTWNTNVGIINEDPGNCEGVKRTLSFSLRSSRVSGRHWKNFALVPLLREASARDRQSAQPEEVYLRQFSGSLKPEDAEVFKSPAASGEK

| SMILES | Change of basal BRET signal | Effect on CAPS-induced BRET increase (intermolecular test) |
| --- | --- | --- |
| C[C@H](CCC(=O)O)C[C@H](C)C[C@H](C)C(=O)/C=C(\O)[C@H](C)C[C@H](C)C/C=C/[C@@H](C)[C@@H](O)[C@@H](C)[C@@H](O)C[C@@H]1CC[C@@](C)([C@H]2CC[C@@](C)([C@@H](C)O)O2)O1 [ionomycin] | no effect |  |
| CC(=O)OCOC(=O)CN(CC(=O)OCOC(C)=O)c1ccccc1OCCOc1ccccc1N(CC(=O)OCOC(C)=O)CC(=O)OCOC(C)=O [BAPTA-AM] | severely diminished | abolished |
